Measured values as given in patent publication US11732286B2, “T5 exonuclease-based method to identify DNA topoisomerase inhibitors” (The Florida International University Board of Trustees, priority 2020, dated 2023).
Entries after “also recorded” stand apart in the source; their conditions may differ. Structures can show the parent of a compound that is named as a salt. Where two headings read alike, the source gives them in different places. Where a SMILES comes first, the peptide text is derived from it. Bridges are numbered along the chain shown (N, C = ends). [ ]: non-standard residue; d: D form. The star is where a group is joined. Octanoyl(6-Me) = CCC(C)CCCCC(=O)*; Dab = NCC[CH](N)C(=O)O

Legend:
[1] = target: E. coli DNA gyrase (Escherichia coli, UniProt P0AES4+P0AES6); assay type: biochemical; conditions: for result in words, pathogen box screen for E. coli DNA gyrase: 400 compounds, several rounds of screening; for hit call, gyrase HTS (FIG. 7): 20 μM, triplicate, Z′ 0.64, S/B 4.3
Sequence of E. coli DNA gyrase (P0AES4 whole entry, one chain of several): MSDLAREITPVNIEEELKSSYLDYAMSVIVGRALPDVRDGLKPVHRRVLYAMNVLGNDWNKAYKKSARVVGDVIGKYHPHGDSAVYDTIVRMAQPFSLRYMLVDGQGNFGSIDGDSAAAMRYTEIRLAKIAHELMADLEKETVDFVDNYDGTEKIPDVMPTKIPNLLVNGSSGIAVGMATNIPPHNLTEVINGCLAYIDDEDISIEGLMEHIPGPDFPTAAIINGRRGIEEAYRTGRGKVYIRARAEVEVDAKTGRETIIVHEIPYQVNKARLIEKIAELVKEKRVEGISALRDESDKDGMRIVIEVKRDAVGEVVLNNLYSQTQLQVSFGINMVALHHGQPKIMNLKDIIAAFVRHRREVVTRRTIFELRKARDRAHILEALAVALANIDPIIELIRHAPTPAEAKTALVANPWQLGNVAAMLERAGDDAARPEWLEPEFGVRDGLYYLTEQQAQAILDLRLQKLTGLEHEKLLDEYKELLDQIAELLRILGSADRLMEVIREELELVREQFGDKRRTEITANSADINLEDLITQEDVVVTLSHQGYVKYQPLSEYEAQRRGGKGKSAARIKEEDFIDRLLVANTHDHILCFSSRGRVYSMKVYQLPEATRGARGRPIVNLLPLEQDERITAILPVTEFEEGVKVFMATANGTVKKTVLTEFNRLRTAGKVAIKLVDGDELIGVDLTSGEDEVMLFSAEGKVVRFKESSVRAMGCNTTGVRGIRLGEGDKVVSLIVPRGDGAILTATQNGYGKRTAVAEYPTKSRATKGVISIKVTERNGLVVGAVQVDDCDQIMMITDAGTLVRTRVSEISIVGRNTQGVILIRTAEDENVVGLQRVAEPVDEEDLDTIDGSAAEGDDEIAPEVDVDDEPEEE

[2] = target: Mtb DNA topoisomerase I (Mycobacterium tuberculosis, UniProt P9WG49); assay type: biochemical; conditions: for screening result in words (Mtb topo I HTS): interpretation of Table 4
Sequence of Mtb DNA topoisomerase I (P9WG49 whole entry): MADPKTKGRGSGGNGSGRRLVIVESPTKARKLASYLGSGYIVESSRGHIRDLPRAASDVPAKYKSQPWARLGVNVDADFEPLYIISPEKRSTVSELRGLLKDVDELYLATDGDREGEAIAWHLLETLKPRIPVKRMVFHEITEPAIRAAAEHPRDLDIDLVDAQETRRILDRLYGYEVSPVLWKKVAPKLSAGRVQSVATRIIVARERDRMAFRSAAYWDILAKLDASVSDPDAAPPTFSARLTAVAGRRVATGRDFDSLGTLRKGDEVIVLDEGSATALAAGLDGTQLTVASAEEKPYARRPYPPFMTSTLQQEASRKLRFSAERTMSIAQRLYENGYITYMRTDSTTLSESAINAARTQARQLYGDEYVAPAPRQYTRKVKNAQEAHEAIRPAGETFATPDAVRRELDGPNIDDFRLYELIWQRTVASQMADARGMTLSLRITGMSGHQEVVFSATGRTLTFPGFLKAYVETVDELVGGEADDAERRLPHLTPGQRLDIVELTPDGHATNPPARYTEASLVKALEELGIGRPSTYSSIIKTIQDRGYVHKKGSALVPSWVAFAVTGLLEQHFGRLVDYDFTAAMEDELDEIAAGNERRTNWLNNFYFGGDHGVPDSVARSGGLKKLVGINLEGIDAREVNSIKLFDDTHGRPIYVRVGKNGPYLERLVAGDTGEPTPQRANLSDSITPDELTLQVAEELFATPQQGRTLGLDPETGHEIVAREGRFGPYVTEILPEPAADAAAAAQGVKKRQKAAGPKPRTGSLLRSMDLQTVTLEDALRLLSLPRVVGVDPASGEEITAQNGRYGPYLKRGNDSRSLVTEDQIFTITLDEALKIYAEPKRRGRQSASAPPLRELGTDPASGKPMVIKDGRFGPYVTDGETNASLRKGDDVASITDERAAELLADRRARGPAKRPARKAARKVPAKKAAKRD

[3] = target: E. coli DNA topoisomerase I (Escherichia coli, UniProt P06612); assay type: biochemical; conditions: for screening result in words (E. coli topo I HTS): interpretation of Table 5 / FIG. 11
Sequence of E. coli DNA topoisomerase I (P06612 whole entry): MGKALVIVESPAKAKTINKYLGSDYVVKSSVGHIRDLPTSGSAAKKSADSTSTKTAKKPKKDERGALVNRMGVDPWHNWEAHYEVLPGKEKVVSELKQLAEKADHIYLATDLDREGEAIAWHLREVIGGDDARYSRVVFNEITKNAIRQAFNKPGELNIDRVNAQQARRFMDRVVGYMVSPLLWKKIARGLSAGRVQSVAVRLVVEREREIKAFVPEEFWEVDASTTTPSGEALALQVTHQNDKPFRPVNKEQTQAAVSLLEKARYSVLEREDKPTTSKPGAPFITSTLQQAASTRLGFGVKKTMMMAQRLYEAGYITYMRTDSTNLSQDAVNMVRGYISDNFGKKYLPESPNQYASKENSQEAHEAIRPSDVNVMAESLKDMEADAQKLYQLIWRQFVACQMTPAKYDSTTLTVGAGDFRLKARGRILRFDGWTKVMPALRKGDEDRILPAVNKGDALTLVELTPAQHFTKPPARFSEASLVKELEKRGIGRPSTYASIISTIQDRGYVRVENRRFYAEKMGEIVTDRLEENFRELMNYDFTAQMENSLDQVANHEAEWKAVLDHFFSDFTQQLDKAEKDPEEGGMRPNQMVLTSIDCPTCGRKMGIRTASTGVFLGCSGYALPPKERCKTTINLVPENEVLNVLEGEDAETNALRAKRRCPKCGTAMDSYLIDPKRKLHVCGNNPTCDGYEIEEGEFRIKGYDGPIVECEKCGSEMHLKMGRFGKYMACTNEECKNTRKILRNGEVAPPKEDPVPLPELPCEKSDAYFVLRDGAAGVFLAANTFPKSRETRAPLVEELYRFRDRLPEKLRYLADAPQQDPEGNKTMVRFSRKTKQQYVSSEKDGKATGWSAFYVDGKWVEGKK

[4] = target: variola virus DNA topoisomerase 1 (vTopI) (Variola virus, UniProt P32989); assay type: biochemical; conditions: for screening result in words (Variola topo I HTS): interpretation of Table 6
Sequence of variola virus DNA topoisomerase 1 (vTopI) (P32989 whole entry, looked up): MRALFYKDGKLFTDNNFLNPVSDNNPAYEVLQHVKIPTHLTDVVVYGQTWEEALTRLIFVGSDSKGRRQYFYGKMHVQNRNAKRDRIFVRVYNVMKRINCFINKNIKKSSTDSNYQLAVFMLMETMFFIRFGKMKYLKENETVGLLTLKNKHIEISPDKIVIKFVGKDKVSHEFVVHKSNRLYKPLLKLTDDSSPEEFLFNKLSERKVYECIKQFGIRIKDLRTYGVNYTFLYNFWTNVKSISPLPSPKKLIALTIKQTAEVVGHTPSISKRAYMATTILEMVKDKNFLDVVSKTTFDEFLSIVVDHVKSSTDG

[5] = target: T1, human DNA topoisomerase I (HuTopI) (Homo sapiens, UniProt P11387); experiment: Human TopI-catalyzed DNA relaxation of sc pAB1_FL905 (fluorescence, FIG. 14); assay type: biochemical; conditions: 25 nM huTopI, sc pAB1_FL905, λem=521 nm, λex=482 nm; read-out: IC50 for inhibition of HuTopI activities
T1 sequence (P11387 1-765): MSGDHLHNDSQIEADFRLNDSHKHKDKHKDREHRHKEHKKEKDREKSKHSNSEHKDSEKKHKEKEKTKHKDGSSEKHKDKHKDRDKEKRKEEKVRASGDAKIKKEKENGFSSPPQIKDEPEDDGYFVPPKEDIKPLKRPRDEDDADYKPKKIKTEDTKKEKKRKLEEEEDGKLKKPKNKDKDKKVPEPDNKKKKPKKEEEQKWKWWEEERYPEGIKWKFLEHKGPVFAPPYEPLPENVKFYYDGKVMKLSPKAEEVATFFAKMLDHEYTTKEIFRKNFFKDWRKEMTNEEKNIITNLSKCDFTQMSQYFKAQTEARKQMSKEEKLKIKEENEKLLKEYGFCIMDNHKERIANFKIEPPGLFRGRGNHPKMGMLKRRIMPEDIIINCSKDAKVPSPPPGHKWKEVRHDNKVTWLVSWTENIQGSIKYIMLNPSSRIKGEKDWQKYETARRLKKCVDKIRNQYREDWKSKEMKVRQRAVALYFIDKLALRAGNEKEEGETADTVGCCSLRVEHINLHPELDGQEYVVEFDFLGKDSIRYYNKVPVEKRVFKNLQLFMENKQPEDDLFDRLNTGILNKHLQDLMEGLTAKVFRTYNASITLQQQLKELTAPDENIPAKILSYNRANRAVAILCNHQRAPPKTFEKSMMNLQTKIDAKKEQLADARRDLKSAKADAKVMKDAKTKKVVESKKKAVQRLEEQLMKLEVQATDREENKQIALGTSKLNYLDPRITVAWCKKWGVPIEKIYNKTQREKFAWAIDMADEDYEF

[6] = target: MtbTopI (Mycobacterium tuberculosis, UniProt P9WG49); experiment: MtbTopI inhibition test of FIG. 14; assay type: biochemical
Sequence of MtbTopI (P9WG49 whole entry): as the sequence (P9WG49 whole entry) above

[7] = system: supercoiled plasmid pAB1; experiment: T5 exonuclease-based HTS assay for DNA intercalators (sc pAB1, no topoisomerase)

O=C(O)c1cn(C2CC2)c2cc(N3CCNCC3)c(F)cc2c1=O [Ciprofloxacin]
fluorescence, HTS screening of 50-compound library for E. coli DNA gyrase inhibitors [1]: 1803
screening result in words (Table 2, gyrase HTS) [1]: DNA intercalators
fluorescence, HTS screening of 50-compound library for Mtb DNA topoisomerase 1 inhibitors [2]: 1493
fluorescence, HTS screening of 50-compound library for E. coli DNA topoisomerase 1 inhibitors [3]: 1191

CCN1CCN(c2cc3c(cc2F)c(=O)c(C(=O)O)cn3C2CC2)CC1 [Enrofloxacin]
screening result in words (Table 2, gyrase HTS) ([1]; interpretation of Table 2): DNA intercalators
screening result in words (Variola topo I HTS) [4]: can inhibit Variola topo I

NCC(=O)O [Glycine]
fluorescence, HTS screening of 50-compound library for E. coli DNA gyrase inhibitors [1]: 644
fluorescence, HTS screening of 50-compound library for Mtb DNA topoisomerase 1 inhibitors [2]: 1321
fluorescence, HTS screening of 50-compound library for E. coli DNA topoisomerase 1 inhibitors [3]: 1589

NCCCC[C@H](N)C(=O)O [L-lysine]
fluorescence, HTS screening of 50-compound library (Table 6; vTopI) [4]: 1028

C[C@H]1COc2c(N3CCN(C)CC3)c(F)cc3c(=O)c(C(=O)O)cn1c23 [Levofloxacin]
screening result in words (Table 2, gyrase HTS) ([1]; interpretation of Table 2): DNA intercalators
result in words, pathogen box screen for E. coli DNA gyrase [1]: inhibit E. coli DNA gyrase activities

CCn1cc(C(=O)O)c(=O)c2cc(F)c(N3CCNC(C)C3)c(F)c21 (centres unmarked) [Lomefloxacin]
screening result in words (Table 2, gyrase HTS) ([1]; interpretation of Table 2): DNA intercalators

NC(N)=Nc1ccc(-c2ccc(-c3ccc(N=C(N)N)cc3Cl)o2)c(Cl)c1 [MMV688179]
result in words, pathogen box screen for E. coli DNA gyrase [1]: inhibit E. coli DNA gyrase activities

CCCCCCCCOC(=O)c1cc(O)c(O)c(O)c1 [NSC97419]
screening result in words (Mtb topo I HTS) [2]: new Mtb DNA topI inhibitors; also recorded: can inhibit Mtb topo I
screening result in words (E. coli topo I HTS) [3]: can inhibit E. coli topo I
screening result in words (Variola topo I HTS) [4]: can inhibit Variola topo I

O=C1C=C(NCCc2cc(Br)c(O)c(Br)c2)C(=O)c2ncccc21 [NSC668394]
screening result in words (Mtb topo I HTS) [2]: new Mtb DNA topI inhibitors; also recorded: can inhibit Mtb topo I
screening result in words (E. coli topo I HTS) [3]: new E. coli DNA Topo I inhibitor; also recorded: can inhibit E. coli topo I
IC50 [5]: 5 µM
inhibition of MtbTopI in words (FIG. 14B and D) [6]: did not inhibit

CCn1cc(C(=O)O)c(=O)c2cc(F)c(N3CCNCC3)cc21 [Norfloxacin]
screening result in words (Table 2, gyrase HTS) ([1]; interpretation of Table 2): DNA intercalators

CCC(C)CCCCC(=O)NC(CCN)C(=O)NC(C(=O)NC(CCN)C(=O)NC1CCNC(=O)C(C(C)O)NC(=O)C(CCN)NC(=O)C(CCN)NC(=O)C(CC(C)C)NC(=O)C(Cc2ccccc2)NC(=O)C(CCN)NC1=O)C(C)O (centres unmarked) [Polymyxin B sulfate salt] ({Octanoyl(6-Me)}-[Dab]T[Dab][Dab][Dab]FL[Dab][Dab]T; lactam 4-C; configuration not given here)
fluorescence, HTS screening of 50-compound library (Table 6; vTopI) [4]: 1744

CN[C@H](CC(C)C)C(=O)N[C@H]1C(=O)N[C@@H](CC(N)=O)C(=O)N[C@H]2C(=O)N[C@H]3C(=O)N[C@H](C(=O)N[C@H](C(=O)O)c4cc(O)cc(O)c4-c4cc3ccc4O)[C@H](O)c3ccc(c(Cl)c3)Oc3cc2cc(c3O[C@@H]2O[C@H](CO)[C@@H](O)[C@H](O)[C@H]2OC2C[C@](C)(N)[C@H](O)[C@H](C)O2)Oc2ccc(cc2Cl)[C@H]1O (some centres unmarked) [Vancomycin]
fluorescence, HTS screening of 50-compound library (Table 6; vTopI) [4]: 1398

Cc1ncc(C[n+]2csc(CCO)c2C)c(N)n1 [Vitamine B1]
fluorescence, HTS screening of 50-compound library for E. coli DNA gyrase inhibitors [1]: 467
fluorescence, HTS screening of 50-compound library for Mtb DNA topoisomerase 1 inhibitors [2]: 1224
fluorescence, HTS screening of 50-compound library for E. coli DNA topoisomerase 1 inhibitors [3]: 1441

CC[C@@]1(O)C(=O)OCc2c1cc1n(c2=O)Cc2cc3ccccc3nc2-1 [camptothecin]
fluorescence, HTS screening of 50-compound library (Table 6; vTopI) [4]: 1712

CS[C@H]1SC[C@H]2C(=O)N(C)[C@@H](C(C)C)C(=O)OC[C@@H](NC(=O)c3cnc4ccccc4n3)C(=O)N[C@@H](C)C(=O)N(C)[C@@H]1C(=O)N(C)[C@@H](C(C)C)C(=O)OC[C@@H](NC(=O)c1cnc3ccccc3n1)C(=O)N[C@@H](C)C(=O)N2C [echinomycin]
hit call, gyrase HTS (FIG. 7) [1]: hits
screening result in words (Table 2, gyrase HTS) ([1]; interpretation of Table 2): DNA intercalators
fluorescence, HTS screening of 50-compound library (Table 6; vTopI) [4]: 1238

CCOc1ccc2nc3cc(N)ccc3c(N)c2c1 [ethacridine]
hit call, gyrase HTS (FIG. 7) [1]: hits
screening result in words (Table 2, gyrase HTS) ([1]; interpretation of Table 2): DNA intercalators

NC[C@H]1O[C@H](O[C@H]2[C@H](O)[C@@H](O[C@H]3O[C@H](CO)[C@@H](O)[C@H](N)[C@H]3O)[C@H](N)C[C@@H]2N)[C@H](O)[C@@H](O)[C@@H]1O [kanamycin]
fluorescence, HTS screening of 50-compound library for E. coli DNA gyrase inhibitors [1]: 510
fluorescence, HTS screening of 50-compound library for Mtb DNA topoisomerase 1 inhibitors [2]: 1466
fluorescence, HTS screening of 50-compound library for E. coli DNA topoisomerase 1 inhibitors [3]: 1719

c1ccncc1 [pyridine]
fluorescence, HTS screening of 50-compound library for E. coli DNA gyrase inhibitors [1]: 568
fluorescence, HTS screening of 50-compound library for Mtb DNA topoisomerase 1 inhibitors [2]: 1380
fluorescence, HTS screening of 50-compound library for E. coli DNA topoisomerase 1 inhibitors [3]: 1339
fluorescence, HTS screening of 50-compound library for DNA intercalators [7]: 218

Nc1ccc(S(N)(=O)=O)cc1 [sulfanilamide]
fluorescence, HTS screening of 50-compound library for E. coli DNA gyrase inhibitors [1]: 558
fluorescence, HTS screening of 50-compound library for Mtb DNA topoisomerase 1 inhibitors [2]: 1523
fluorescence, HTS screening of 50-compound library for E. coli DNA topoisomerase 1 inhibitors [3]: 1426

Cc1ccc(C(=O)Nc2ccc(S(=O)(=O)O)c3cc(S(=O)(=O)O)cc(S(=O)(=O)O)c23)cc1NC(=O)c1cccc(NC(=O)Nc2cccc(C(=O)Nc3cc(C(=O)Nc4ccc(S(=O)(=O)O)c5cc(S(=O)(=O)O)cc(S(=O)(=O)O)c45)ccc3C)c2)c1 [suramin]
hit call, gyrase HTS (FIG. 7) [1]: hits
screening result in words (Table 2, gyrase HTS) ([1]; interpretation of Table 2): DNA intercalators
screening result in words (Mtb topo I HTS) [2]: can inhibit Mtb topo I
screening result in words (E. coli topo I HTS) [3]: can inhibit E. coli topo I
screening result in words (Variola topo I HTS) [4]: can inhibit Variola topo I

CC[C@@]1(O)C(=O)OCc2c1cc1n(c2=O)Cc2cc3c(CN(C)C)c(O)ccc3nc2-1 [topotecan]
screening result in words (Mtb topo I HTS) [2]: new Mtb DNA topI inhibitors; also recorded: can inhibit Mtb topo I

citrinin
fluorescence, HTS screening of 50-compound library (Table 6; vTopI) [4]: 1311
